EC50, Emax and inhibition data for 20 compounds are collected here from patent US10166218B2, “3-(1H-indol-2-yl)-1H-pyrazolo[3,4-C]pyridines and therapeutic uses thereof” (Samumed, LLC, priority 2015, dated 2019).

pEC50: −log10 of the molar value.

Experiment [1] deals with primary human fibroblasts derived from IPF patients (LL29 cells) treated with TGF-β1; α-smooth muscle actin (αSMA). As to the kind of experiment: Inhibition of the fibrotic process: αSMA staining in TGF-β1 treated primary human fibroblasts from IPF patients (LL29 cells). It is filed as cell-based. The note with it: Fibroblast, 96 h, TGF-β1 20 ng/mL, 4 days; for pEC50: % cells positive for αSMA. The method in brief: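 Compound dilutions from 10 μM down to […] are dispensed, LL29 cells added in F12 with 1% FBS, and TGF-β1 (20 ng/mL) follows after 1 h. After 4 days, live-cell αSMA positivity is measured by immunofluorescence and normalized to TGF-β1-treated wells to derive EC50.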

Experiment [2] has as its system primary human mesenchymal stem cells (hMSCs). Kind of experiment: Induction of chondrogenesis in primary human mesenchymal stem cells (chondrogenic nodules). The format is cell-based. The note with it: 144 h, 6 days; for EC50: concentration required to induce 50% levels of chondrogenesis of TGF-β3 positive control, read-out: Conc (nM) of 50% TGF-β3 activity; for Emax: nodules, relative to TGF-β3 (10 ng/mL) positive control, read-out: Max. Activity as % TGF-β3 activity. The method, then:
Representative compounds were screened using primary human mesenchymal stem cells (hMSCs) to determine their ability to induce chondrogenesis (process by which cartilage is developed).
Primary human mesenchymal stem cells (hMSCs) were purchased from Lonza (Walkersville, Md.) and expanded in Mesenchymal Stem Cell Growth Media (Lonza). Cells between passage 3 and 6 were used for the experiments.
Each compound was dissolved in DMSO as a 10 mM stock and used to prepare compound source plates. Serial dilution (1:3, 6-point dose-response curves from 2700 nM to 10 nM) and compound transfer was performed using the ECHO 550 (Labcyte, Sunnyvale, Calif.) into 96-well clear bottom assay plates (Greiner Bio-One) with appropriate DMSO backfill for a final DMSO concentration of 0.03%. hMSCs were plated at 20,000 cells/well in 250 μL/well Incomplete Chondrogenic Induction Medium (Lonza; DMEM, dexamethasone, ascorbate, insulin-transferrin-selenium [ITS supplement], gentamycin-amphotericin [GA-1000], sodium pyruvate, proline and L-glutamine). TGF-β3 (10 ng/mL) was used as a positive control for differentiation while negative control wells were treated with 75 nL DMSO for normalization and calculating EC50 values. Cells were incubated at 37° C. and 5% CO2 for 6 days. To image chondrogenic nodules, the cells were fixed using 4% formaldehyde (Electron Microscopy Sciences), and stained with 2 μg/mL Rhodamine B (Sigma-Aldrich) and 20 μM Nile Red (Sigma-Aldrich) [Johnson K., et. al, A Stem Cell-Based Approach to Cartilage Repair, Science, (2012), 336(6082), 717-721]. The nodules imaged (4 images per well at 4× magnification) by excitation at 531 nm and emission at 625 nm and quantified using the CellInsight CX5 (Thermo Scientific). Number of nodules in each well was normalized to the average of 3 DMSO treated wells on the same plate using Excel (Microsoft Inc.). The normalized averages (fold change over DMSO) of 3 replicate wells for each compound concentration were calculated. Due to solubility limitations of some of the compounds, curve fitting was incomplete leading to inaccurate EC50 determinations.
Using TGF-β3 as a positive control, the concentration of representative compounds required to induce 50% levels of chondrogenesis is reported. In addition, the maximum activity of each compound and the respective dose that each compound reached maximum chondrogenesis activity is reported.

As to `CCNCc1cncc(-c2cc3c(-c4cc5c(-c6ccc(F)cc6)cccc5[nH]4)n[nH]c3cn2)c1` [Compound 34, N-((5-(3-(4-(4-Fluorophenyl)-1H-indol-2-yl)-1H-pyrazolo[3,4-c]pyridin-5-yl)pyridin-3-yl)methyl)ethanamine], the negative-log EC50 (pEC50) in experiment [1] is 7.54. In experiment [2], the EC50 came out at 900 nM and the Emax came out at 268%.
On the same counts, the results for `Fc1ccc(-c2cccc3[nH]c(-c4n[nH]c5cnc(-c6cncc(CN7CCCC7)c6)cc45)cc23)cc1` [Compound 42, 3-(4-(4-Fluorophenyl)-1H-indol-2-yl)-5-(5-(pyrrolidin-1-ylmethyl)pyridin-3-yl)-1H-pyrazolo[3,4-c]pyridine] are 7.11, 300 nM and 164%.
On the same counts, the results for `Nc1cncc(-c2cc3c(-c4cc5c(-c6ccccc6F)cccc5[nH]4)n[nH]c3cn2)c1` [Compound 59, 5-(3-(4-(2-Fluorophenyl)-1H-indol-2-yl)-1H-pyrazolo[3,4-c]pyridin-5-yl) pyridin-3-amine] are 6.84, 30 nM and 94%.
Regarding `Fc1ccccc1-c1cccc2[nH]c(-c3n[nH]c4cnc(-c5cncc(CN6CCCCC6)c5)cc34)cc12` [Compound 71, 3-(4-(2-Fluorophenyl)-1H-indol-2-yl)-5-(5-(piperidin-1-ylmethyl)pyridin-3-yl)-1H-pyrazolo[3,4-c]pyridine], the pEC50 in experiment [1] was 6.80. Moreover, in experiment [2], the Emax worked out at 18%.
On the same counts, the results for `CCC(=O)Nc1cncc(-c2cc3c(-c4cc5c(-c6cccnc6)cccc5[nH]4)n[nH]c3cn2)c1` [Compound 85, N-(5-(3-(4-(Pyridin-3-yl)-1H-indol-2-yl)-1H-pyrazolo[3,4-c]pyridin-5-yl)pyridin-3-yl)propionamide] are 6.26 and 101%.
`c1cncc(-c2cc3c(-c4cc5c(-c6cccnc6)cccc5[nH]4)n[nH]c3cn2)c1` [Compound 88, 5-(Pyridin-3-yl)-3-(4-(pyridin-3-yl)-1H-indol-2-yl)-1H-pyrazolo[3,4-c]pyridine] showed a pEC50 in experiment [1] of 6.52. Further, in experiment [2], the EC50 was 30 nM and the Emax was found to be 141%.
`CC(C)C(=O)Nc1cncc(-c2cc3c(-c4cc5c(-c6cccnc6)cccc5[nH]4)n[nH]c3cn2)c1` [Compound 93, N-(5-(3-(4-(Pyridin-3-yl)-1H-indol-2-yl)-1H-pyrazolo[3,4-c]pyridin-5-yl)pyridin-3-yl)isobutyramide]: the pEC50 in experiment [1] was 6.53. In addition, in experiment [2], the EC50 came out at 10 nM and the Emax came out at 201%.
On the same counts, the results for `O=C(Nc1cncc(-c2cc3c(-c4cc5c(-c6cccnc6)cccc5[nH]4)n[nH]c3cn2)c1)c1ccccc1` [Compound 95, N-(5-(3-(4-(Pyridin-3-yl)-1H-indol-2-yl)-1H-pyrazolo[3,4-c]pyridin-5-yl)pyridin-3-yl)benzamide] are 6.78, 100 nM and 236%.
On to `c1cncc(-c2cccc3[nH]c(-c4n[nH]c5cnc(-c6cncc(CN7CCCC7)c6)cc45)cc23)c1` [Compound 98, 3-(4-(Pyridin-3-yl)-1H-indol-2-yl)-5-(5-(pyrrolidin-1-ylmethyl)pyridin-3-yl)-1H-pyrazolo[3,4-c]pyridine], for which the pEC50 in experiment [1] was 5.79. Moreover, in experiment [2], the Emax was determined as 22%.
As for `O=C(Nc1cncc(-c2cc3c(-c4cc5c(-c6cccnc6)cccc5[nH]4)n[nH]c3cn2)c1)C1CC1` [Compound 104, N-(5-(3-(4-(Pyridin-3-yl)-1H-indol-2-yl)-1H-pyrazolo[3,4-c]pyridin-5-yl)pyridin-3-yl)cyclopropanecarboxamide], the pEC50 in experiment [1] is 6.72. Besides, in experiment [2], the EC50 was found to be 100 nM and the Emax came out at 308%.
On the same counts, the results for `Nc1cncc(-c2cc3c(-c4cc5c(-c6ccccn6)cccc5[nH]4)n[nH]c3cn2)c1` [Compound 143, 5-(3-(4-(Pyridin-2-yl)-1H-indol-2-yl)-1H-pyrazolo[3,4-c]pyridin-5-yl) pyridin-3-amine] are 7.01, 300 nM and 118%.
As to `Cc1ccncc1-c1cc2c(-c3cc4c(-c5ccccn5)cccc4[nH]3)n[nH]c2cn1` [Compound 145, 5-(4-Methylpyridin-3-yl)-3-(4-(pyridin-2-yl)-1H-indol-2-yl)-1H-pyrazolo [3,4-c]pyridine], in experiment [1], the pEC50 is 6.65. Also, in experiment [2], the EC50 is 30 nM and the Emax was determined as 90%.
`CN(C)Cc1cncc(-c2cc3c(-c4cc5c(-c6ccccn6)cccc5[nH]4)n[nH]c3cn2)c1` [Compound 153, N,N-Dimethyl-1-(5-(3-(4-(pyridin-2-yl)-1H-indol-2-yl)-1H-pyrazolo[3,4-c]pyridin-5-yl)pyridin-3-yl)methanamine] showed a pEC50 in experiment [1] of 6.34. In experiment [2], the EC50 came out at 30 nM and the Emax is 75%.
Compound `CCCCC(=O)Nc1cncc(-c2cc3c(-c4cc5c(-c6ccccn6)cccc5[nH]4)n[nH]c3cn2)c1` [Compound 159, N-(5-(3-(4-(Pyridin-2-yl)-1H-indol-2-yl)-1H-pyrazolo[3,4-c]pyridin-5-yl)pyridin-3-yl)pentanamide] had a pEC50 in experiment [1] of 6.57. In addition, in experiment [2], the EC50 was 900 nM and the Emax came to 84%.
In experiment [1], `CC(C)C(=O)Nc1cncc(-c2cc3c(-c4cc5c(N6CCN(C)CC6)cccc5[nH]4)n[nH]c3cn2)c1` [Compound 233] showed a pEC50 of under 5.00. Further, in experiment [1] (αSMA, 10 μM, read-out: percent inhibition at 10 μM (given for EC50 of >10 μM)), the inhibition at 10 µM is 74.5%. Also, the Emax in experiment [2] stood at 36%.
On to `O=C(Nc1cncc(-c2cc3c(-c4cc5ccccc5[nH]4)n[nH]c3cn2)c1)c1ccccc1` [Compound 263, N-(5-(3-(1H-Indol-2-yl)-1H-pyrazolo[3,4-c]pyridin-5-yl)pyridin-3-yl) benzamide], for which the pEC50 in experiment [1] is 7.19. Further, in experiment [2], the Emax was 122%.
On the same counts, the results for `c1ccc2[nH]c(-c3n[nH]c4cnc(-c5cncc(CN6CCCC6)c5)cc34)cc2c1` [Compound 266, 3-(1H-Indol-2-yl)-5-(5-(pyrrolidin-1-ylmethyl)pyridin-3-yl)-1H-pyrazolo [3,4-c]pyridine] are 6.84 and 138%.
On the same counts, the results for `c1cc(-c2ccoc2)c2cc(-c3n[nH]c4cnc(-c5cncc(CN6CCCCC6)c5)cc34)[nH]c2c1` [Compound 323, 3-(4-(Furan-3-yl)-1H-indol-2-yl)-5-(5-(piperidin-1-ylmethyl)pyridin-3-yl)-1H-pyrazolo[3,4-c]pyridine] are 6.58 and 85%.
`CN(C)CCNc1cc(F)cc(-c2cccc3[nH]c(-c4n[nH]c5cnc(-c6cncc(N)c6)cc45)cc23)c1` [Compound 451, N^1-(3-(2-(5-(5-Aminopyridin-3-yl)-1H-pyrazolo[3,4-c]pyridin-3-yl)-1H-indol-4-yl)-5-fluorophenyl)-N^2,N^2-dimethylethane-1,2-diamine] gave a pEC50 in experiment [1] of 7.34. Further, in experiment [2], the EC50 worked out at 100 nM and the Emax amounted to 180%.
On the same counts, the results for `CCNCc1cncc(-c2cc3c(-c4cc5c(-c6cc(F)cc(NCCN(C)C)c6)cccc5[nH]4)n[nH]c3cn2)c1` [Compound 454, N^1-(3-(2-(5-(5-((Ethylamino)methyl)pyridin-3-yl)-1H-pyrazolo[3,4-c]pyridin-3-yl)-1H-indol-4-yl)-5-fluorophenyl)-N^2,N^2-dimethylethane-1,2-diamine] are 6.23, 30 nM and 294%.
